Data reported in patent publication US20060069132A1, “Azolecarboxamide herbicides” (priority 2004, published 2006).

Experiments:
[1] = tested on: barnyardgrass; assay: Test A pre-/postemergence herbicide test; format: in vivo, Echinochloa crus-galli
Outline: (§1)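 Visual injury rating on a 0–100 scale (0 no effect, 100 complete control) versus untreated controls, about ten days after treatment in greenhouse. Pre: directed soil spray onto seeded sandy loam. Post: spray to runoff on plants 2–10 cm tall at one- to two-leaf stage.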

[2] = tested on: large crabgrass; assay: Test A pre-/postemergence herbicide test; format: in vivo, Digitaria sanguinalis
Outline: as §1

[3] = tested on: giant foxtail; assay: Test A pre-/postemergence herbicide test; format: in vivo, Setaria faberi
Outline: as §1

[4] = tested on: morningglory; assay: Test A pre-/postemergence herbicide test; format: in vivo, Ipomoea spp.
Outline: as §1

[5] = tested on: redroot pigweed; assay: Test A pre-/postemergence herbicide test; format: in vivo, Amaranthus retroflexus
Outline: as §1

[6] = tested on: velvetleaf; assay: Test A pre-/postemergence herbicide test; format: in vivo, Abutilon theophrasti
Outline: as §1

[7] = tested on: barnyardgrass; assay: Test B pre-/postemergence herbicide test; format: in vivo, Echinochloa crus-galli; conditions: for Barnyardgrass plant response rating: postemergence, visual rating, scale 0 (no effect) to 100 (complete control)
Outline: (§2)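 Visual rating, 0 (no effect) to 100 (complete control), versus untreated controls after 13–15 d in greenhouse. Pre- and postemergence applications (postemergence plants 2–18 cm, 1–4 leaves); flooded paddy arm at 2-leaf stage. Compounds in non-phytotoxic solvent plus surfactant.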

[8] = tested on: Surinam grass; assay: Test B pre-/postemergence herbicide test; format: in vivo, Urochloa decumbens; conditions: for Surinam Grass plant response rating: postemergence, visual rating, scale 0 (no effect) to 100 (complete control)
Outline: as §2

[9] = tested on: cocklebur; assay: Test B pre-/postemergence herbicide test; format: in vivo, Xanthium strumarium; conditions: for Cocklebur plant response rating: postemergence, visual rating, scale 0 (no effect) to 100 (complete control)
Outline: as §2

[10] = tested on: corn; assay: Test B pre-/postemergence herbicide test; format: in vivo, Zea mays; conditions: for Corn plant response rating: postemergence, visual rating, scale 0 (no effect) to 100 (complete control)
Outline: as §2

[11] = tested on: large crabgrass; assay: Test B pre-/postemergence herbicide test; format: in vivo, Digitaria sanguinalis; conditions: for Crabgrass, Large plant response rating: postemergence, visual rating, scale 0 (no effect) to 100 (complete control)
Outline: as §2

[12] = tested on: giant foxtail; assay: Test B pre-/postemergence herbicide test; format: in vivo, Setaria faberi; conditions: for Foxtail, Giant plant response rating: postemergence, visual rating, scale 0 (no effect) to 100 (complete control)
Outline: as §2

[13] = tested on: lambsquarters; assay: Test B pre-/postemergence herbicide test; format: in vivo, Chenopodium album; conditions: for Lambsquarters plant response rating: postemergence, visual rating, scale 0 (no effect) to 100 (complete control)
Outline: as §2

[14] = tested on: morningglory; assay: Test B pre-/postemergence herbicide test; format: in vivo, Ipomoea coccinea; conditions: for Morningglory plant response rating: postemergence, visual rating, scale 0 (no effect) to 100 (complete control)
Outline: as §2

[15] = tested on: pigweed; assay: Test B pre-/postemergence herbicide test; format: in vivo, Amaranthus retroflexus; conditions: for Pigweed plant response rating: postemergence, visual rating, scale 0 (no effect) to 100 (complete control)
Outline: as §2

[16] = tested on: rice; assay: Test B pre-/postemergence herbicide test; format: in vivo, Oryza sativa; conditions: preemergence
Outline: as §2

[17] = tested on: velvetleaf; assay: Test B pre-/postemergence herbicide test; format: in vivo, Abutilon theophrasti; conditions: for Velvetleaf plant response rating: postemergence, visual rating, scale 0 (no effect) to 100 (complete control)
Outline: as §2

[18] = tested on: blackgrass; assay: Test B postemergence herbicide test; format: in vivo, Alopecurus myosuroides; conditions: postemergence, visual rating, scale 0 (no effect) to 100 (complete control)
Outline: (§3)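 Visual ratings, 0 (no effect) to 100 (complete control), made versus controls after 13–15 d greenhouse. Paddy plants treated at 2-leaf stage; postemergence plants at 1- to 4-leaf stage, 2–18 cm tall.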

[19] = tested on: wheat; assay: Test B postemergence herbicide test; format: in vivo, Triticum aestivum; parameters: key to Wheat plant response rating: 0 = no effect, 100 = complete control; conditions: postemergence, visual rating, scale 0 (no effect) to 100 (complete control)
Outline: (§4)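 Treated at 2-leaf (paddy) or 1–4-leaf, 2–18 cm (postemergence); greenhouse 13–15 d; visual score vs control, 0 none to 100 complete control; dash = not tested.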

[20] = tested on: wild oat; assay: Test B postemergence herbicide test; format: in vivo, Avena fatua; conditions: postemergence, visual rating, scale 0 (no effect) to 100 (complete control)
Outline: as §4

[21] = tested on: rice; assay: Test B flooded paddy test; format: in vivo, Oryza sativa; conditions: 1000 g ai/ha, visual rating, scale 0 to 100 (0 no effect, 100 complete control), 13 to 15 days
Outline: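 Read-out: visual comparison with controls, scored 0 to 100, where 100 means complete control and 0 no effect. Formulated chemicals were applied postemergence to plants 2–18 cm tall (1- to 4-leaf), or to flooded-paddy plants at the 2-leaf stage, then held 13 to 15 days under glass.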

[22] = tested on: small flower umbrella sedge; assay: Test B flooded paddy test; format: in vivo, Cyperus difformis; conditions: 1000 g ai/ha, visual rating, scale 0 to 100 (0 no effect, 100 complete control), 13 to 15 days
Outline: as §3

[23] = tested on: ducksalad; assay: Test B flooded paddy test; format: in vivo, Heteranthera limosa; conditions: 1000 g ai/ha, visual rating, scale 0 to 100 (0 no effect, 100 complete control), 13 to 15 days
Outline: as §3

[24] = tested on: barnyardgrass; assay: Test B flooded paddy test; format: in vivo, Echinochloa crus-galli; conditions: 1000 g ai/ha, visual rating, scale 0 to 100 (0 no effect, 100 complete control), 13 to 15 days
Outline: as §3

[25] = Postemergence, 500 g ai/ha, 0 to 100 scale, 0 no effect, 100 complete control
[26] = Postemergence, 2000 g ai/ha, 0 to 100 scale, 0 no effect, 100 complete control
[27] = Preemergence, 2000 g ai/ha, visual rating, 0 to 100 scale (0 no effect, 100 complete control)
[28] = preemergence, 500 g ai/ha, visual injury, 0 to 100 scale (0 no effect, 100 complete control)
[29] = 125 g ai/ha, 0 = no effect, 100 = complete control, preemergence
[30] = 500 g ai/ha, visual rating 0-100, 0 no effect, 100 complete control, preemergence

## CCOc1cccc(NC(=O)c2cn(C(C)(C)C)nc2C)c1 [Compound 190]
[1]; [25]
  Barnyardgrass plant response rating: 0
[1]; [26]
  Plant response rating, Barnyardgrass: 0
[1]; [27]
  Barnyardgrass plant response rating: 40
[1]; [28]
  Barnyardgrass plant response rating: 20
[2]; [25]
  Crabgrass, Large plant response rating: 10
[2]; [26]
  Plant response rating, Crabgrass, Large: 15
[2]; [27]
  Crabgrass, Large plant response rating: 70
[2]; [28]
  Crabgrass, Large plant response rating: 40
[3]; [25]
  Foxtail, Giant plant response rating: 0
[3]; [26]
  Plant response rating, Foxtail, Giant: 0
[3]; [27]
  Foxtail, Giant plant response rating: 10
[3]; [28]
  Foxtail, Giant plant response rating: 0
[4]; [25]
  Morningglory plant response rating: 10
[4]; [26]
  Plant response rating, Morningglory: 25
[4]; [27]
  Morningglory plant response rating: 25
[4]; [28]
  Morningglory plant response rating: 10
[5]; [25]
  Pigweed plant response rating: 10
[5]; [26]
  Plant response rating, Pigweed: 20
[5]; [27]
  Pigweed plant response rating: 85
[5]; [28]
  Pigweed plant response rating: 25
[6]; [25]
  Velvetleaf plant response rating: 0
[6]; [26]
  Plant response rating, Velvetleaf: 15
[6]; [27]
  Velvetleaf plant response rating: 15
[6]; [28]
  Velvetleaf plant response rating: 0
[7]; [29]
  Barnyardgrass plant response rating (0 to 100 scale): 0
[7]; [30]
  Plant response rating, Barnyardgrass: 30
[7]; 125 g ai/ha
  Barnyardgrass plant response rating: 0
[7]; 500 g ai/ha
  Barnyardgrass plant response rating: 10
[8]; [29]
  Surinam Grass plant response rating (0 to 100 scale): 0
[8]; [30]
  Plant response rating, Surinam Grass: 10
[8]; 125 g ai/ha
  Surinam Grass plant response rating: 10
[8]; 500 g ai/ha
  Surinam Grass plant response rating: 20
[9]; [29]
  Cocklebur plant response rating (0 to 100 scale): 0
[9]; [30]
  Plant response rating, Cocklebur: 0
[9]; 125 g ai/ha
  Cocklebur plant response rating: 0
[9]; 500 g ai/ha
  Cocklebur plant response rating: 10
[10]; [29]
  Corn plant response rating (0 to 100 scale): 0
[10]; [30]
  Plant response rating, Corn: 0
[10]; 125 g ai/ha
  Corn plant response rating: 10
[10]; 500 g ai/ha
  Corn plant response rating: 10
[11]; [29]
  Crabgrass, Large plant response rating (0 to 100 scale): 30
[11]; [30]
  Plant response rating, Crabgrass, Large: 80
[11]; 125 g ai/ha
  Crabgrass, Large plant response rating: 10
[11]; 500 g ai/ha
  Crabgrass, Large plant response rating: 20
[12]; [29]
  Foxtail, Giant plant response rating (0 to 100 scale): 0
[12]; [30]
  Plant response rating, Foxtail, Giant: 10
[12]; 125 g ai/ha
  Foxtail, Giant plant response rating: 10
[12]; 500 g ai/ha
  Foxtail, Giant plant response rating: 10
[13]; [29]
  Lambsquarters plant response rating (0 to 100 scale): 0
[13]; [30]
  Plant response rating, Lambsquarters: 50
[13]; 125 g ai/ha
  Lambsquarters plant response rating: 30
[13]; 500 g ai/ha
  Lambsquarters plant response rating: 80
[14]; [29]
  Morningglory plant response rating (0 to 100 scale): 0
[14]; [30]
  Plant response rating, Morningglory: 0
[14]; 125 g ai/ha
  Morningglory plant response rating: 50
[14]; 500 g ai/ha
  Morningglory plant response rating: 90
[15]; [29]
  Pigweed plant response rating (0 to 100 scale): 30
[15]; [30]
  Plant response rating, Pigweed: 90
[15]; 125 g ai/ha
  Pigweed plant response rating: 30
[15]; 500 g ai/ha
  Pigweed plant response rating: 70
[16]; 125 g ai/ha, 0 = no effect, 100 = complete control
  Rice plant response rating (0 to 100 scale): 0
[16]; 500 g ai/ha, visual rating 0-100, 0 no effect, 100 complete control
  Plant response rating, Rice: 30
[17]; [29]
  Velvetleaf plant response rating (0 to 100 scale): 0
[17]; [30]
  Plant response rating, Velvetleaf: 10
[17]; 125 g ai/ha
  Velvetleaf plant response rating: 20
[17]; 500 g ai/ha
  Velvetleaf plant response rating: 40
[18]; 125 g ai/ha
  Blackgrass plant response rating: 0
[18]; 500 g ai/ha
  Blackgrass plant response rating: 0
[19]; 125 g ai/ha
  Wheat plant response rating: 0
[19]; 500 g ai/ha
  Wheat plant response rating: 0
[20]; 125 g ai/ha
  Oat, Wild plant response rating: 10
[20]; 500 g ai/ha
  Oat, Wild plant response rating: 20
[21]
  Rice plant response rating: 0
[22]
  Sedge, Umbrella plant response rating: 60
[23]
  Ducksalad plant response rating: 60
[24]
  Barnyardgrass plant response rating: 20
